Results reported in article PMC6667648 (Frontiers in Microbiology, 2019).
Values after ≈ are worked out from the molar mass of the structure shown. Where a SMILES comes first, the peptide text is derived from it. Bridges are numbered along the chain shown (N, C = ends).

Columns and labels:
S. epidermis ATCC 51625 = assay: microbe, parasite or virus in culture; format: cell-based, S. epidermidis; details: ATCC 51625, 24 h
Procedure: (§1) Strains were obtained from American Type Culture Collection (ATCC, Manassas, VA) or the clinical isolate collection at Trideum Biosciences (Frederick, MD, USA). Bioluminescence strains of P. aeruginosa 19660, transfected with the Xen5 luciferase gene, and S. aureus ATCC® 49525™ (Wright), transfected with the Xen36 luciferase gene, were obtained from Perkin Elmer (Hopkinton, MA).
(§2) A single colony was aseptically picked from an agar overlay and released in 25–30 mL of pre-warmed trypticase soy broth in a culture flask. Each culture was incubated overnight in a 37°C incubator. […] Pathogen growth was measured by absorbance at 600 nm. Four replicas were included for each test agent concentration. […]

[1] = system: human HaCaT keratinocytes; format: cell-based; details: 256 μg/mL
Procedure: Non-invasive real-time evaluation of viability, mammalian, and bacterial cells, was performed using bioluminescent human keratinocytes (HaCaT, AddexBio, San Diego, CA) and murine L929 fibroblast cells (ATCC, Manassas, VA). The bioluminescent variants were constructed by transfection with a luciferase gene (RediFect Red-Fluc-Puromycin, Catalog #CL596002) (Hamblin et al., [2003]). […] Each concentration was performed in triplicate. Bioluminescence imaging was performed at pre-specified times (0, 15, and 30 min and 1, 3, 5, 8, and 24 h) and compared to concurrently run vehicle-controls. The 96-well plate was positioned on the stage (12.5-cm field of view) within the in vivo Imaging System (IVIS) imaging system (Caliper Life Sciences, Inc., Hopkinton, MA, USA), with an open emission filter, binning of 4, and f-stop 1, and a 1-min exposure time. The resultant photons emitted from the live cells were quantified using Living Image® software (version 4.3, Caliper Life Sciences, Inc.). Monitoring bioluminescence allows assessment of the kinetics of cellular viability as there is a tight correlation between photon count imaging and viable counts (Kadurugamuwa et al., [2003]).

P. aeruginosa ATCC 19660 = assay: microbe, parasite or virus in culture; format: cell-based, Pseudomonas aeruginosa; details: P. aeruginosa ATCC 19660; 24-h incubation; mean of 3 replicates from 2 independent experiments
Procedure: as §1, §2

P. aeruginosa ATCC 27853 = assay: microbe, parasite or virus in culture; format: cell-based, Pseudomonas aeruginosa; details: P. aeruginosa ATCC 27853; 24-h incubation; mean of 3 replicates from 2 independent experiments
Procedure: as §1, §2

P. aeruginosa 6186 = assay: microbe, parasite or virus in culture; format: cell-based, Pseudomonas aeruginosa; details: 6186, 24 h
Procedure: as §1, §2

[2] = system: mature (120 h) MRSA ATCC 1556 biofilm; format: cell-based, Staphylococcus aureus; details: mature (120 h) MRSA biofilm, 16 h treatment, CFU count, three technical replicates
K. pneumonia 6066 = assay: microbe, parasite or virus in culture; format: cell-based, Klebsiella pneumoniae; details: 24 h
Procedure: as §1, §2

K. pneumonia ATCC 10031 = assay: microbe, parasite or virus in culture; format: cell-based, Klebsiella pneumoniae; details: ATCC 10031, 24 h
Procedure: as §1, §2

K. pneumonia 6069 = assay: microbe, parasite or virus in culture; format: cell-based, Klebsiella pneumoniae; details: 24 h
Procedure: as §1, §2

[3] = system: MDR S. epidermidis ATCC 700578 biofilm; format: cell-based; details: CFU count
Procedure: (§3) Biofilms (methicillin-resistant S. epidermidis, MRSE ATCC 51625 and multidrug resistant S. epidermidis MDR-SE ATCC 700578) were established following inoculation of 10^5 CFU/mL in Minimum Essential Media for 6 h or 5 days representing preformed or mature biofilm respectively, in plastic 96-well plates (Costar, Catalog #3595). […] Following test agent incubation, the media (including the planktonic cells) was removed and then the remaining biofilm treated with 50 μL 0.1% Triton X100 followed by agitating the plate on a rocker for 30 min. The biofilm was then disrupted with a 96 well replicator, the resultant mixture vortexed, samples serially diluted, plated on agar plates, and incubated overnight and CFUs subsequently counted. Three technical replicates were performed for each condition tested.

[4] = system: methicillin-resistant S. epidermidis biofilm; format: cell-based
Procedure: as §3

CC[C@H](C)[C@@H]1NC(=O)CNC(=O)[C@H](CCCCN)NC(=O)[C@H](Cc2ccc(O)cc2)NC(=O)[C@@H]2CSSC[C@H](NC1=O)C(=O)N[C@@H](Cc1ccccc1)C(=O)N[C@@H](CCCCN)C(=O)N[C@@H](CCCCN)C(=O)N[C@H](C(=O)N[C@@H](CCCCN)C(N)=O)CSSC[C@H](NC(=O)[C@H](Cc1ccccc1)NC(=O)[C@@H](N)CCCNC(=N)N)C(=O)N[C@@H](Cc1c[nH]c3ccccc13)C(=O)N[C@@H](CCCCN)C(=O)N[C@@H](C(C)C)C(=O)N2 [RP557] (H-RFCWKVCYKGICFKKCK-NH2; disulfide 3-16, 7-12)
Minimum Inhibitory Concentration (MIC) (S. epidermis ATCC 51625): 4.0 [8] μM
Keratinocyte cell killing ([1]; 8 h incubation): no cell killing observed
Keratinocyte viability ([1]; 8 h): greater than 80%
Minimum Inhibitory Concentration (MIC) (P. aeruginosa ATCC 19660): 2.0 [4] μM
Minimum Inhibitory Concentration (MIC) (P. aeruginosa ATCC 27853): 2.0 [4] μM
Minimum Inhibitory Concentration (MIC) (P. aeruginosa 6186): 2.0 [4] μM
EC90 (concentration to reduce biofilm by 90%) [2]: 2 µg/mL (≈ 0.936 µM)
Minimum Inhibitory Concentration (MIC) (K. pneumonia 6066): 4.0 [8] μM
Minimum Inhibitory Concentration (MIC) (K. pneumonia ATCC 10031): 4.0 [8] μM
Minimum Inhibitory Concentration (MIC) (K. pneumonia 6069): 2.0 [4] μM
EC90, biofilm [3]: 8 µg/mL (≈ 3.75 µM)
EC90, biofilm [4]: 8 µg/mL (≈ 3.75 µM)
